Data on three compounds can be found in patent US4950650A, “Novel arginine vasopressin-binding peptides” (University of Florida, priority 1988, dated 1990).

Where no end group is shown, it is not given here. Some results are limits rather than exact numbers.

For assay [1], the system named is PA helper signal for IFN production. As to the kind of experiment: Pressinoic acid (PA) help in IFN production in helper cell depleted spleen cell cultures. The class given is cell-based, mouse.
The test system of assay [2] is AVP receptor on splenic lymphocyte. In words: Binding of 3H-AVP to receptor on splenic lymphocyte membranes. Also noted: species or system mouse. As to conditions: for DPM (Mean ± SD): 300 nM 3H-AVP. The method, then: Membranes were prepared as previously described (Torres and Johnson [1988] supra). Freshly dissociated spleen cells were incubated on plastic at 37° C. for 1 hr to remove adherent cells. Plates were washed and non-adherent cells were incubated for an additional hour at 37° C. Washed non-adherent cells were resuspended in 50 mM Tris-HCl buffer (pH 7.4) containing 10 mM EGTA and 10 μM phenylmethylsulfonylfluoride (PMSF), which generally lysed any red blood cells in the preparation. Additional red blood cell lysis was performed using 10 mM potassium bicarbonate buffer containing 16 mM ammonium chloride and 100 μM ethylenediaminetetraacetic acid (EDTA). Cells were washed twice and sonicated on ice using a Fisher Model 300 Sonicator (Fisher Scientific, Pittsburgh, Penna.) with microprobe. Preparations were monitored microscopically and were sonicated until greater than 95% cell rupture was achieved. Sonicated preparations were centrifuged at 1000×g at 4° C. to remove debris and large particles. Supernatants were then spun at 33,000 rpm (55,000×g) at 4° C. for 45 min in a Sorvall UTD65B Ultracentrifuge (T1270 rotor) to isolate membranes. Resulting membrane preparations were resuspended in 50 mM Tris-HCl (pH 7.4) containing 10 mM MgCL2 and 10 μM PMSF, and aliquots were stored at -70° C.
Membranes (30 μg/ml) were incubated in a final volume of 200 μl with cold AVP and/or AVP-binding peptide for 20 min. prior to the addition of 300 nM ^3 H-AVP (specific activity, 70 Ci/mmol; New England Nuclear, Boston, Mass.). Binding was carried out at room temperature for 30 min., at which time samples were placed on ice to stop further binding. Membranes were washed through 0.45 μm filters (GVWP; Millipore, Bedford, Mass.) presoaked in 2% bovine serum albumin (BSA) with approximately 50× volume of ice cold reaction buffer (50 mM Tris-HCl, pH 7.4, 10 mM MgCl2, 2% BSA, 10 μM PMSF). Filters were then placed in scintillation vials and radioactivity was counted on a beta-scintillation counter.

Assay [3] deals with AVP (Homo sapiens, UniProt P01185). As to the kind of experiment: Solid matrix binding of 3H-AVP to immobilized AVP-binding peptide. Conditions: 3H-AVP binding to peptide coupled to a solid matrix, room temperature 1 hr; read-out: apparent KD. As to the method: FIG. 1--Specific binding of ^3 H-AVP to AVP-binding peptide […] AVP-binding peptide (200 μl of a 2 mg/ml solution) was bound overnight at 4° C. onto 96-well Immulon plates (Dynatech, Alexandria, Va.). Plates were washed three times with phosphate-buffered saline containing 5% BSA and 0.1% TWEEN™ 20 (binding buffer). Remaining binding sites were bound by incubating plates at room temperature with 20 μl binding buffer/well for 2 hr. After extensive washing, cold AVP (10 μM) was added to the appropriate plates 20 min, prior to the addition of ^3 H-AVP. Solid matrix binding was carried out at room temperature for 1 hr. Plates were washed three times and counts were solubilized with 1 N NaOH. Counts were then placed in scintillation vials and counted on a beta-scintillation counter. Specific binding of ^3 H-AVP was the difference between the binding in the absence and presence of cold AVP.
Evidence for such direct interaction is provided by the binding data of FIG. 1, where ^3 H-AVP bound to the peptide coupled to a solid matrix with an apparent KD of approximately 50 nM. The binding was inhibited by excess cold AVP. We conclude that the peptide blocks AVP function through direct binding to AVP.

Consider pressinoic acid [PA], for which the IFN is recorded as 105 ± 21 U/ml in assay [1] (Table 4, PA (10) (nm), no binding peptide); below 3 U/ml in assay [1] (Table 5, PA 3 nM, no complex); 185 ± 21 U/ml in assay [1] (Table 5, PA 10 nM, no complex); 250 ± 71 U/ml in assay [1] (Table 5, PA 30 nM, no complex).

For `NC(=O)CC[C@@H]1NC(=O)[C@H](Cc2ccccc2)NC(=O)[C@H](Cc2ccc(O)cc2)NC(=O)[C@@H](N)CSSC[C@@H](C(=O)N2CCC[C@H]2C(=O)N[C@@H](CCCN=C(N)N)C(=O)NCC(N)=O)NC(=O)[C@H](CC(N)=O)NC1=O` [AVP, Arginine vasopressin], the “effect on binding of 300 nM 3H-AVP to lymphocyte receptors” value in assay [2] (cold AVP as competitor) is “did compete and block”. In addition, the “DPM (Mean ± SD)” value is 5,265 ± 476 DPM in assay [2] (competitor 0.1 μM, none = 4,965 ± 226); 4,209 ± 150 DPM in assay [2] (competitor 1.0 μM); 3,621 ± 347 DPM in assay [2] (competitor 10.0 μM); 3,577 ± 167 DPM in assay [2] (competitor 100.0 μM).

Regarding TMKVLTGSP [AVP-binding peptide], in assay [3], the Kd was around 50 nM.
